Where two headings read alike, the source gives them in different places.
Legend:
[1] = test system: P. syringae TTSS secretion (AvrPto, Pst DC3000); settings: for abundance of AvrPto in total protein (bacteria): total / intracellular protein; for abundance of AvrPto in total protein (bacteria) / inhibition of AvrPto secretion in Pst DC3000: immunoblot; for inhibition of AvrPto secretion in Pst DC3000: supernatant protein, indicated concentrations or dilutions
Pst DC3000 = assay: Growth curve of Pst DC3000 in KB medium; assay type: cell-based, P. syringae; settings: 150 μM
[2] = test system: Pst DC3000 TTSS gene transcription (avrPto, hrpL)
P. actinidiae = assay: Bacterial canker of kiwifruit, leaf inoculation; assay type: in vivo; settings: 1 mM, sprayed with bacteria on leaves
[3] = test system: Xanthomonas oryzae pv. oryzae (Xoo) isolate P6; assay type: in vivo, rice; settings: 1 mM, Xoo P6, leaf clipping, 12 days after inoculation, versus solvent
[4] = test system: Pst DC3000 injectisome structural proteins (HrpA, HrcQb); assay: Injectisome structural proteins in cellular and membrane fractions (quantitative proteomics, immunoblot); assay type: cell-based, P. syringae; settings: 0.2 mM
Procedure: To isolate the membrane fraction, bacterial cells were harvested, washed with 10 mM Tris-HCl at pH 8.0, centrifuged and the supernatants were carefully discarded. The cell pellets were then resuspended in spheroplast buffer (20 mM Tris pH 8.0, 20% sucrose, 1 mM Na-EDTA), incubated for 10 min and centrifuged. The pellets were then resuspended in ice hypotonic solution (sterile water) and the sample were incubated for 10 min on ice. After centrifugation, the resulting pellets were resuspended in 10 mM Tris-HCl at pH 8.0 and sonicated. After centrifugation, the supernatants were carefully transferred to new tubes and centrifuged again for 40 min. The pellets were washed by sterile water and centrifuged for another 40 min. The pellets were resuspended in water as membrane proteins.

[5] = test system: Pst DC3000 TTSS injectisome (Hrp pilus) assembly; assay type: cell-based, P. syringae; settings: 0.2 mM, TEM
R. solanacearum = assay type: in vivo, tomato; settings: 1 mM, soil drenching, versus solvent
[6] = test system: Pst T1 effector AvrPto secretion; assay: AvrPto secretion of Pst T1 (immunoblot); assay type: cell-based; settings: 24 h incubation, versus untreated bacteria
Pst DC3000 hrcQ mutant = assay: Bacterial growth assay on N. benthamiana leaves; assay type: in vivo; settings: 150 μM
[7] = test system: S. typhimurium effector SopF secretion; assay: SopF protein accumulation and secretion of Salmonella Typhimurium (immunoblot); assay type: cell-based, Salmonella Typhimurium 14028S; settings: 24 h incubation, versus untreated bacteria
Procedure: To determine SopF protein accumulation and secretion, Salmonella Typhimurium 14028S expressing His-tagged SopF was cultivated at 37° C. in LB medium and then subcultured (1:100) in fresh 30 mL LB medium with erucamide or solvent to an OD600 of 0.2. After induction with 0.5 mM IPTG, whole cells and culture supernatants were separated by centrifugation at 5000 RPM for 10 min. The pellet was resuspended by PBS as cytoplasmic protein sample. The supernatants were filtered (0.22 μm pore-size) and then precipitated by adding trichloroacetic acid at a final concentration of 10% v/v, followed by incubation at 4° C. overnight and centrifugation (20000 g, 4° C., 30 min). The pellet was washed twice by cold acetone and analyzed by immunoblot using anti-His antibodies. For control, anti-DnaK antibodies were used.

[8] = test system: Xcc8004 effector AvrAc secretion; assay: AvrAC protein accumulation and secretion of Xcc8004 (immunoblot); assay type: cell-based; settings: 24 h incubation, versus untreated bacteria
Procedure: To determine AvrAC protein accumulation and secretion, Xcc8004 strain expressing HA-tagged AvrAC was cultivated at 28° C. in NYG rich medium (3 g/L yeast extract, 5 g/L peptone, 20 g/L glycerol, pH 7.0). […] Total and supernatants protein were analyzed by immunoblot by indicated antibodies.

CCCCCCCC/C=C\CCCCCCCCCCCC(=O)NO [Compound T3SI-24, (Z)—N-hydroxydocos-13-enamide]
abundance of AvrPto in total protein (bacteria) [1]: decrease

CCCCCCCCCCCCCCCCCC(N)=O [Compound T3SI-8]
inhibition of AvrPto secretion in Pst DC3000 [1]: effectively inhibited

CCCCCCCCCCCCCCCCCCCCCC(N)=O [Compound T3SI-7]
inhibition of AvrPto secretion in Pst DC3000 [1]: effectively inhibited

CCCCCCCC/C=C\CCCCCCCCCCCC(N)=O (single isomer, unassigned) [Compound T3SI-1, erucamide]
growth of Pst DC3000 (Pst DC3000; listed as Erucamide): does not affect
growth of Pst DC3000 (Pst DC3000; listed as erucamide): no effect
transcription activity of TTSS genes avrPto and hrpL and house-keeping gene trp ([2]; Pst DC3000 reporter genes, luciferase activity): does not inhibit
disease symptoms caused by P. actinidiae on kiwifruit leaves (P. actinidiae; listed as Erucamide): decreased the disease symptoms
disease symptoms caused by P. actinidiae on kiwifruit leaves (P. actinidiae; listed as erucamide): significantly decrease the disease symptoms
rice bacterial blight lesion length ([3]; listed as Erucamide): protective effects
rice bacterial blight lesion length ([3]; listed as erucamide): significantly shorter
HrpA and HrcQb accumulation in membrane ([4]; immunoblot): inhibited
levels of HrpA and HrcQb in cellular protein ([4]; immunoblot): did not change
amount of injectisome structure proteins in total protein ([4]; quantitative proteomics): not altered
injectisome structure protein accumulation in membrane ([4]; quantitative proteomics): reduced
flagella production [5]: slightly blocked
Hrp pilus (TTSS injectisome) assembly ([5]; listed as Erucamide): inhibited
Hrp pilus (TTSS injectisome) assembly ([5]; listed as erucamide): significantly inhibited
bacteria that had Hrp pilus ([5]; erucamide treatment group): 3.3%
bacteria that had flagella ([5]; erucamide treatment group): 56.7%
disease symptoms / virulence of R. solanacearum on tomato (R. solanacearum; listed as Erucamide): decreased the virulence
disease symptoms / virulence of R. solanacearum on tomato (R. solanacearum; listed as erucamide): significantly decreased disease symptoms
secretion of AvrPto in Pst T1 ([6]; listed as Erucamide): inhibits
secretion of AvrPto in Pst T1 ([6]; listed as erucamide): significantly lower
Pst DC3000 hrcQ growth on N. benthamiana (Pst DC3000 hrcQ mutant): inhibited
bacteria population in treated plants, less than in untreated plants (Pst DC3000 hrcQ mutant; N. benthamiana leaves, 3 days after inoculation): 5 fold
secretion of SopF in S. typhimurium ([7]; listed as Erucamide): inhibits
secretion of SopF in S. typhimurium ([7]; listed as erucamide): significantly lower
secretion of AvrAc in Xcc8004 ([8]; listed as Erucamide): inhibits
secretion of AvrAc in Xcc8004 ([8]; listed as erucamide): significantly lower
concentration at which inhibition of AvrPto secretion was observed ([1]; Pst DC3000): 6 µM
inhibition of AvrPto secretion in Pst DC3000 [1]: effectively inhibited
inhibition of AvrPto secretion in Pst DC3000 ([1]; listed as Erucamide): inhibits
inhibition of AvrPto secretion in Pst DC3000 ([1]; listed as erucamide): gradually decreased with increasing concentration
inhibition of AvrPto secretion in Pst DC3000 ([1]; listed as fraction 9): high activity

CCCCCCCC/C=C\CCCCCCCCCCCC(=O)NCCO [Compound T3SI-18, N-(2-hydroxyethyl)-13(Z)-Docosenamide]
inhibition of AvrPto secretion in Pst DC3000 [1]: effectively inhibited

CCCCCCCCc1ccccc1CCCCCCCCCCCC(N)=O [Compound T3SI-21, 12-(2-octylphenyl)dodecanamide]
abundance of AvrPto in total protein (bacteria) [1]: decrease

CCCCCC/C=C\CCCC(N)=O [Compound T3SI-29]
abundance of AvrPto in total protein (bacteria) [1]: decrease

CCCCCCCC/C=C\CCCCCCCCCCCC(=O)NCC [Compound T3SI-16, N-ethyl-13(Z)-Docosenamide]
inhibition of AvrPto secretion in Pst DC3000 [1]: effectively inhibited

C[S+]([O-])CCCCN=C=S (stereo not shown) [SFN, reference compound]
P. syringae TTSS gene expression [2]: preferentially inhibits

CCCCCCCCCCCCCC(N)=O [Compound T3SI-25]
inhibition of AvrPto secretion in Pst DC3000 [1]: effectively inhibited

CCCCCCCC/C=C\CCCCCCCCCCCCNC(N)=O [Compound T3SI-14, N-(13Z)-13-Docosen-1-ylurea]
inhibition of AvrPto secretion in Pst DC3000 [1]: effectively inhibited

CCCCCCCCCCCC(N)=O [Compound T3SI-26]
inhibition of AvrPto secretion in Pst DC3000 [1]: effectively inhibited

CCCCCCCCCCCCCCCC(N)=O [Compound T3SI-9]
inhibition of AvrPto secretion in Pst DC3000 [1]: effectively inhibited

CCCCCCCCc1ccc(CCCCCCCCCCCC(N)=O)cc1 [Compound T3SI-22, 12-(4-octylphenyl)dodecanamide]
abundance of AvrPto in total protein (bacteria) [1]: decrease

C=CCCCCCCCCCCCC(N)=O [Compound T3SI-12, 13-Tetradecenoic acid amide]
inhibition of AvrPto secretion in Pst DC3000 [1]: effectively inhibited

CCCCCC/C=C\CCCCCCCC(N)=O [Compound T3SI-6]
abundance of AvrPto in total protein (bacteria) [1]: decrease

CCCCCCCCCCCCCCCC(=O)NCCO [Compound T3SI-19, N-(2-hydroxyethyl)-Hexadecanamide]
inhibition of AvrPto secretion in Pst DC3000 [1]: effectively inhibited

CCCCCCCC/C=C\CCCCCCCC(N)=O [Compound T3SI-5]
abundance of AvrPto in total protein (bacteria) [1]: decrease

CCCCCCCC/C=C/CCCCCCCCCCCC(N)=O [Compound T3SI-2, (E)-13-docosenamide]
inhibition of AvrPto secretion in Pst DC3000 [1]: effectively inhibited
